Assay results: PubChem BioAssay (NCI)
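Step 1: Grow cells in 96-well plates. Step 2: Expose to compound for 48 hours at 5 concentrations. Step 3: Interpolate endpoints linearly; if unreached, use highest concentration. TGI: total growth inhibition.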

Columns and labels:
Experiment in all cases: DTP human tumour cell line panel, 48 h
[1] = test system: BT-549 breast
[2] = test system: NCI/ADR-RES ovarian
[3] = test system: HL-60(TB) leukemia
[4] = test system: ACHN renal
[5] = test system: A549 NSCLC
[6] = test system: SK-OV-3 ovarian
[7] = test system: MCF7 breast
[8] = test system: SN12C renal
[9] = test system: UACC-62 melanoma
[10] = test system: U251 CNS
[11] = test system: CCRF-CEM leukemia
[12] = test system: LOX IMVI melanoma
[13] = test system: EKVX NSCLC
[14] = test system: HT29 colon
[15] = test system: HS 578T breast
[16] = test system: OVCAR-4 ovarian
[17] = test system: SK-MEL-28 melanoma
[18] = test system: SF-268 CNS
[19] = test system: IGROV1 ovarian
[20] = test system: NCI-H460 lung
[21] = test system: MOLT-4 leukemia
[22] = test system: NCI-H23 lung
[23] = test system: SNB-19 CNS
[24] = test system: COLO 205 colon
[25] = test system: MDA-N
[26] = test system: SF-539 CNS
[27] = test system: UACC-257 melanoma
[28] = test system: RXF 393 renal
[29] = test system: HCC-2998 colon
[30] = test system: M14 melanoma
[31] = test system: RPMI-8226 leukemia
[32] = test system: T-47D breast
[33] = test system: SF-295 CNS
[34] = test system: K-562 leukemia
[35] = test system: OVCAR-3 ovarian
[36] = test system: SW-620 colon
[37] = test system: A498 renal
[38] = test system: MDA-MB-231 breast
[39] = test system: TK-10 renal
[40] = test system: HCT-15 colon
[41] = test system: HCT-116 colon
[42] = test system: MALME-3M melanoma
[43] = test system: HOP-62 NSCLC
[44] = test system: NCI-H226 lung
[45] = test system: SK-MEL-2 melanoma
[46] = test system: OVCAR-8 ovarian
[47] = test system: MDA-MB-435
[48] = test system: KM12 colon
[49] = test system: UO-31 renal
[50] = test system: OVCAR-5 ovarian
[51] = test system: SNB-75 CNS
[52] = test system: DU-145 prostate
[53] = test system: 786-0 renal
[54] = test system: CAKI-1 renal
[55] = test system: SK-MEL-5 melanoma
[56] = test system: NCI-H522 lung
[57] = test system: PC-3 prostate
[58] = test system: HOP-92 NSCLC

## C[n+]1c2ccccc2c2/c(=C\C#N)c3ccccc3n21
[1]
  TGI: 8.42 µM
[2]
  TGI: > 100 µM
[3]
  TGI: 26.3 µM
[4]
  TGI: 18.5 µM
[5]
  TGI: 32.9 µM
[6]
  TGI: 16 µM
[7]
  TGI: 21.7 µM
[8]
  TGI: 38 µM
[9]
  TGI: 54.2 µM
[10]
  TGI: 13.9 µM
[11]
  TGI: 50.2 µM
[12]
  TGI: 16.6 µM
[13]
  TGI: 6.54 µM
[14]
  TGI: 16.5 µM
[15]
  TGI: > 100 µM
[16]
  TGI: 11.4 µM
[17]
  TGI: 30.3 µM
[18]
  TGI: 29.3 µM
[19]
  TGI: 12.2 µM
[20]
  TGI: 22.8 µM
[21]
  TGI: 57.7 µM
[22]
  TGI: 77.1 µM
[23]
  TGI: > 100 µM
[24]
  TGI: 4.87 µM
[25]
  TGI: 18.6 µM
[26]
  TGI: 17.5 µM
[27]
  TGI: 20.8 µM
[28]
  TGI: 21.9 µM
[29]
  TGI: 5.27 µM
[30]
  TGI: 18.6 µM
[31]
  TGI: 16.9 µM
[32]
  TGI: 58.5 µM
[33]
  TGI: 19.2 µM
[34]
  TGI: > 100 µM
[35]
  TGI: 33.1 µM
[36]
  TGI: 11.8 µM
[37]
  TGI: 82.8 µM
[38]
  TGI: 82.3 µM
[39]
  TGI: 8.46 µM
[40]
  TGI: 97.2 µM
[41]
  TGI: 8.45 µM
[42]
  TGI: 7.55 µM
[43]
  TGI: 8.17 µM
[44]
  TGI: 17.6 µM
[45]
  TGI: 8.52 µM
[46]
  TGI: 15.9 µM
[47]
  TGI: 28.1 µM
[48]
  TGI: 31.7 µM
[49]
  TGI: 26.7 µM
[50]
  TGI: 26.1 µM
[51]
  TGI: 8.16 µM
[52]
  TGI: 45.8 µM
[53]
  TGI: 14.8 µM
[54]
  TGI: 95.4 µM
[55]
  TGI: 61.3 µM

## C=CCN(c1cc(OCc2ccccc2)c2c(c(C)cn2S(=O)(=O)c2ccc([N+](=O)[O-])cc2)c1[N+](=O)[O-])S(C)(=O)=O
[1]
  TGI: > 100 µM
[2]
  TGI: > 100 µM
[56]
  TGI: > 100 µM
[4]
  TGI: > 100 µM
[5]
  TGI: > 100 µM
[6]
  TGI: > 100 µM
[57]
  TGI: > 100 µM
[7]
  TGI: > 100 µM
[8]
  TGI: > 100 µM
[9]
  TGI: > 100 µM
[10]
  TGI: > 100 µM
[11]
  TGI: > 52.3 µM
[12]
  TGI: > 100 µM
[13]
  TGI: > 100 µM
[14]
  TGI: > 100 µM
[15]
  TGI: > 100 µM
[16]
  TGI: > 100 µM
[17]
  TGI: > 100 µM
[18]
  TGI: > 100 µM
[19]
  TGI: > 100 µM
[20]
  TGI: > 100 µM
[21]
  TGI: > 100 µM
[22]
  TGI: > 100 µM
[23]
  TGI: > 100 µM
[24]
  TGI: > 100 µM
[25]
  TGI: > 100 µM
[26]
  TGI: > 100 µM
[27]
  TGI: > 100 µM
[28]
  TGI: > 100 µM
[29]
  TGI: > 100 µM
[30]
  TGI: > 100 µM
[31]
  TGI: > 100 µM
[32]
  TGI: > 100 µM
[33]
  TGI: > 100 µM
[34]
  TGI: > 100 µM
[35]
  TGI: > 100 µM
[58]
  TGI: > 100 µM
[38]
  TGI: > 100 µM
[39]
  TGI: > 100 µM
[40]
  TGI: > 100 µM
[41]
  TGI: > 100 µM
[42]
  TGI: > 100 µM
[43]
  TGI: > 100 µM
[44]
  TGI: > 100 µM
[45]
  TGI: > 100 µM
[46]
  TGI: > 100 µM
[47]
  TGI: 54.1 µM
[48]
  TGI: > 100 µM
[49]
  TGI: > 100 µM
[50]
  TGI: > 100 µM
[51]
  TGI: > 100 µM
[52]
  TGI: > 100 µM
[53]
  TGI: > 100 µM
[54]
  TGI: > 100 µM
[55]
  TGI: > 100 µM

## Cc1n[nH]c(=O)n1/N=C/c1cccc(Cl)c1
[1]
  TGI: > 100 µM
[2]
  TGI: > 100 µM
[4]
  TGI: > 100 µM
[5]
  TGI: > 100 µM
[6]
  TGI: > 100 µM
[57]
  TGI: > 100 µM
[7]
  TGI: > 100 µM
[8]
  TGI: > 100 µM
[9]
  TGI: > 100 µM
[10]
  TGI: > 100 µM
[11]
  TGI: > 100 µM
[13]
  TGI: > 100 µM
[14]
  TGI: > 100 µM
[15]
  TGI: 39.7 µM
[16]
  TGI: > 100 µM
[17]
  TGI: > 100 µM
[18]
  TGI: > 100 µM
[20]
  TGI: > 100 µM
[21]
  TGI: > 100 µM
[22]
  TGI: > 100 µM
[23]
  TGI: > 100 µM
[24]
  TGI: > 100 µM
[25]
  TGI: > 100 µM
[26]
  TGI: > 100 µM
[27]
  TGI: > 100 µM
[28]
  TGI: > 100 µM
[29]
  TGI: > 100 µM
[30]
  TGI: > 100 µM
[31]
  TGI: > 100 µM
[32]
  TGI: > 100 µM
[33]
  TGI: > 100 µM
[34]
  TGI: > 100 µM
[35]
  TGI: > 100 µM
[36]
  TGI: > 100 µM
[37]
  TGI: > 100 µM
[38]
  TGI: > 100 µM
[40]
  TGI: > 100 µM
[41]
  TGI: > 100 µM
[42]
  TGI: > 100 µM
[43]
  TGI: > 100 µM
[44]
  TGI: > 100 µM
[45]
  TGI: > 100 µM
[46]
  TGI: > 100 µM
[47]
  TGI: > 100 µM
[48]
  TGI: > 100 µM
[49]
  TGI: > 100 µM
[50]
  TGI: > 100 µM
[51]
  TGI: > 100 µM
[52]
  TGI: > 100 µM
[53]
  TGI: > 100 µM
[54]
  TGI: > 100 µM
